In ChEMBL document CHEMBL1201862, “PubChem BioAssay data set” (2004):
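The compound was tested at five concentrations on cells cultured in 96-well plates, with a 48-hour exposure period. Here, GI50 denotes the concentration required for 50% inhibition of growth.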 Calls of active or inactive are those of the source. Rule as the data show it: active = GI50 up to about 1.1 µM and inactive = higher.

Experiments:
Assay in all cases: NCI-60 cell line screen, 48 h
786-0 = system: 786-0
DLD-1 = system: DLD-1
HOP-62 = system: HOP-62
IGROV-1 = system: IGROV-1
K562 = system: K562
LOX IMVI = system: LOX IMVI
M19-MEL = system: M19-MEL
NCI-H226 = system: NCI-H226
RPMI-8226 = system: RPMI-8226
RXF 393 = system: RXF 393
SF-268 = system: SF-268
SF-295 = system: SF-295
SN12C = system: SN12C
SNB-19 = system: SNB-19
U-251 = system: U-251
UO-31 = system: UO-31
SNB-75 = system: SNB-75

Measured: GI50

CC1=C(C(=O)NNS(=O)(=O)c2ccc(C)cc2)CC(C(=O)NNS(=O)(=O)c2ccc(C)cc2)=C(C)N1
inactive: 786-0 > 100 µM | DLD-1 > 100 µM | HOP-62 > 100 µM | IGROV-1 > 100 µM | K562 56.9 µM | LOX IMVI > 100 µM | M19-MEL 98.9 µM | NCI-H226 > 100 µM | RPMI-8226 36.2 µM | RXF 393 92.7 µM | SF-268 > 100 µM | SF-295 > 100 µM | SN12C > 100 µM | SNB-19 > 100 µM | U-251 > 100 µM | UO-31 > 100 µM

CC1=C(C(=O)Nc2ccccc2C)C(c2ccc(Cl)cc2)C(C(=O)Nc2ccccc2C)=C(C)N1
inactive: 786-0 > 100 µM | DLD-1 > 100 µM | HOP-62 > 100 µM | IGROV-1 > 100 µM | K562 > 100 µM | LOX IMVI > 100 µM | M19-MEL > 100 µM | NCI-H226 > 100 µM | RPMI-8226 > 100 µM | RXF 393 > 100 µM | SF-268 > 100 µM | SF-295 > 100 µM | SN12C > 100 µM | SNB-19 > 100 µM | U-251 > 100 µM | UO-31 > 100 µM

CC(=O)OCC1OC(OC(C)=O)C(NC#N)C(OC(C)=O)C1OC(C)=O (centres undefined)
inactive: 786-0 > 100 µM | DLD-1 > 100 µM | HOP-62 > 100 µM | IGROV-1 > 100 µM | K562 > 100 µM | LOX IMVI 39.2 µM | M19-MEL > 100 µM | RPMI-8226 67.8 µM | RXF 393 > 100 µM | SF-268 > 100 µM | SF-295 80.4 µM | SN12C > 100 µM | SNB-19 > 100 µM | SNB-75 > 100 µM | U-251 > 100 µM | UO-31 36.1 µM

CN(C)c1ccc(-c2cc(O)c3ccccc3n2)cc1
inactive: 786-0 > 100 µM | DLD-1 > 100 µM | HOP-62 > 100 µM | IGROV-1 > 100 µM | K562 > 100 µM | LOX IMVI > 100 µM | M19-MEL > 100 µM | NCI-H226 > 100 µM | RPMI-8226 > 100 µM | RXF 393 > 100 µM | SF-268 > 100 µM | SF-295 > 100 µM | SN12C > 100 µM | SNB-19 > 100 µM | U-251 > 100 µM | UO-31 > 100 µM

N#CC(C#N)=Cc1ccc(CP(=O)(O)O)cc1
inactive: 786-0 > 100 µM | DLD-1 > 100 µM | HOP-62 > 100 µM | IGROV-1 > 100 µM | K562 > 100 µM | LOX IMVI > 100 µM | M19-MEL > 100 µM | NCI-H226 > 100 µM | RPMI-8226 > 100 µM | SF-268 > 100 µM | SF-295 > 100 µM | SN12C > 100 µM | SNB-19 > 100 µM | U-251 > 100 µM | UO-31 > 100 µM
